Measurements: US11377418B2, “Compounds and methods for treating influenza” (Macau University of Science and Technology, priority 2020, dated 2022)
“Also recorded” adds a separate entry of the source. Like-named read-outs stand apart in the source and are kept apart here.

Legend:
[1] = test system: influenza A H1N1 (A/PR/8/34 virus); test: cytopathic effect (CPE) inhibition assay in MDCK cells; type: cell-based
[2] = test system: NF-κB activation; test: NF-κB-driven luciferase reporter assay in TNF-α-induced HEK293 cells; type: cell-based, Human; details: luciferase activity, 20 ng/mL TNF-α, compound 100, 50, 25 or 12.5 μM, 24 h, FIGS. 1 to 4
[3] = test system: influenza virus; test: NF-κB signalling inhibition, effect on influenza virus titers (in vitro and in vivo)

CC(=O)OC[C@H](Cc1ccccc1)NC(=O)[C@H](Cc1ccc(F)cc1)NC(=O)c1ccc(F)cc1 [Compound 5, (S)-2-((S)-2-(4-fluorobenzamido)-3-(4-fluorophenyl)propanamido)-3-phenylpropyl acetate]
IC50 ([1]; Influenza A virus, MDCK, 48 h): 37.9 µM

CC(=O)OC[C@H](Cc1ccc(F)cc1)NC(=O)[C@H](Cc1ccc(F)cc1)NC(=O)c1ccccc1 [Compound 6, (S)-2-((S)-2-benzamido-3-(4-fluorophenyl)propanamido)-3-(4-fluorophenyl)propyl acetate]
IC50 ([1]; Influenza A virus, MDCK, 48 h): 19.2 µM | inhibition towards NF-κB activation (in words) [2]: strongest inhibition effect; also recorded: strong inhibitory effect

O=C(N[C@@H](Cc1ccc(F)cc1)C(=O)N[C@H](CO)Cc1ccccc1)c1ccc(F)cc1 [Compound 13]
IC50 [1]: 10.5 µM | IC50 ([1]; Influenza A virus, MDCK, 48 h): < 14.3 µM

O=C(N[C@@H](Cc1ccccc1)C(=O)N[C@H](CO)Cc1ccc(F)cc1)c1ccc(F)cc1 [Compound 15, 4-fluoro-N—((S)-1-(((S)-1-(4-fluorophenyl)-3-hydroxypropan-2-yl)amino)-1-oxo-3-phenylpropan-2-yl)benzamide]
IC50 ([1]; Influenza A virus, MDCK, 48 h): 38.7 µM

CC(C)(C)c1ccc(S(=O)(=O)/C=C/C#N)cc1 [Compound 11-7085]
influenza virus titers (in words) [3]: dramatic reduction of influenza virus titers

CC(=O)Oc1ccccc1C(=O)O [acetylsalicyclic acid (ASA), acetylsalicyclic acid]
influenza virus titers (in words) [3]: dramatic reduction of influenza virus titers

CC(=O)OC[C@H](Cc1ccccc1)NC(=O)[C@H](Cc1ccccc1)NC(=O)c1ccccc1 [Compound 1, (S)-2-((S)-2-benzamido-3-phenylpropanamido)-3-phenylpropyl acetate, reference compound]
IC50 ([1]; Influenza A virus, MDCK, 48 h): 74.3 µM

O=C(N[C@@H](Cc1ccccc1)C(=O)N[C@H](CO)Cc1ccc(F)cc1)c1ccccc1 [Compound 12, N—((S)-1-(((S)-1-(4-fluorophenyl)-3-hydroxypropan-2-yl)amino)-1-oxo-3-phenylpropan-2-yl)benzamide]
IC50 ([1]; Influenza A virus, MDCK, 48 h): 17.4 µM

CC(=O)OC[C@H](Cc1ccc(F)cc1)NC(=O)[C@H](Cc1ccccc1)NC(=O)c1ccc(F)cc1 [Compound 7, (S)-2-((S)-2-(4-fluorobenzamido)-3-phenylpropanamido)-3-(4-fluorophenyl)propyl acetate]
IC50 [1]: 13.5 µM | IC50 ([1]; Influenza A virus, MDCK, 48 h): < 14.3 µM

O=C(N[C@@H](Cc1ccccc1)C(=O)N[C@H](CO)Cc1ccccc1)c1ccccc1 [Compound 9, N—((S)-1-(((S)-1-hydroxy-3-phenylpropan-2-yl)amino)-1-oxo-3-phenylpropan-2-yl)benzamide, reference compound]
IC50 ([1]; Influenza A virus, MDCK, 48 h): 34 µM

CC(=O)OC[C@H](Cc1ccccc1)NC(=O)[C@H](Cc1ccccc1)NC(=O)c1ccc(F)cc1 [Compound 3, (S)-2-((S)-2-(4-fluorobenzamido)-3-phenylpropanamido)-3-phenylpropyl acetate]
IC50 ([1]; Influenza A virus, MDCK, 48 h): 42.4 µM

O=C(N[C@@H](Cc1ccc(F)cc1)C(=O)N[C@H](CO)Cc1ccccc1)c1ccccc1 [Compound 10, N—((S)-3-(4-fluorophenyl)-1-(((S)-1-hydroxy-3-phenylpropan-2-yl)amino)-1-oxopropan-2-yl)benzamide]
IC50 [1]: 14.3 µM | anti-influenza virus effect (in words) ([1]; CPE inhibition, MDCK cells, A/PR/8/34 (H1N1)): potent inhibitory effect | IC50 ([1]; Influenza A virus, MDCK, 48 h): < 14.3 µM | inhibition towards NF-κB activation (in words) [2]: potent inhibitory effect; also recorded: strong inhibitory effect; also recorded: excellent inhibitory effects

O=C(N[C@@H](Cc1ccc(F)cc1)C(=O)N[C@H](CO)Cc1ccc(F)cc1)c1ccccc1 [Compound 14, N—((S)-3-(4-fluorophenyl)-1-(((S)-1-(4-fluorophenyl)-3-hydroxypropan-2-yl)amino)-1-oxopropan-2-yl)benzamide]
IC50 ([1]; Influenza A virus, MDCK, 48 h): 19.7 µM | inhibition towards NF-κB activation (in words) [2]: strongest inhibition effect; also recorded: strong inhibitory effect

O=C(N[C@@H](Cc1ccccc1)C(=O)N[C@H](CO)Cc1ccccc1)c1ccc(F)cc1 [Compound 11, 4-fluoro-N—((S)-1-(((S)-1-hydroxy-3-phenylpropan-2-yl)amino)-1-oxo-3-phenylpropan-2-yl)benzamide]
IC50 ([1]; Influenza A virus, MDCK, 48 h): 47 µM

CC(=O)OC[C@H](Cc1ccc(F)cc1)NC(=O)[C@H](Cc1ccccc1)NC(=O)c1ccccc1 [Compound 4, (S)-2-((S)-2-benzamido-3-phenylpropanamido)-3-(4-fluorophenyl)propyl acetate]
IC50 ([1]; Influenza A virus, MDCK, 48 h): 29.6 µM
